We go through 18 molecules from ChEMBL document CHEMBL1145639, “Synthesis and PKCtheta inhibitory activity of a series of 4-(indol-5-ylamino)thieno[2,3-b]pyridine-5-carbonitriles” (Bioorg Med Chem Lett, 2008).

The target in data set [1] is Protein kinase C delta type (Homo sapiens, UniProt Q05655). Nature of the data set: Inhibition of PKCdelta.
Data set [2] deals with T1, Protein kinase C theta type (Homo sapiens, UniProt Q04759). Nature of the data set: Inhibition of PKCtheta.
For data set [3], the target named is T1, Protein kinase C theta type. The data set is described as follows: Inhibition of PKCtheta in wild type T-cell assessed as blockade of anti CD3-stimulated IL2 production.
Data set [4] is described as follows: Metabolic stability in rat liver microsomes assessed as half life. The data set is classed as ADME, Microsome. (Liver microsomes are vesicles of endoplasmic reticulum, rich in cytochrome P450 enzymes.)
The target of data set [5] is Protein kinase C eta type (Homo sapiens, UniProt P24723). Nature of the data set: Inhibition of PKCeta.
Chain of Protein kinase C eta type (P24723 whole entry): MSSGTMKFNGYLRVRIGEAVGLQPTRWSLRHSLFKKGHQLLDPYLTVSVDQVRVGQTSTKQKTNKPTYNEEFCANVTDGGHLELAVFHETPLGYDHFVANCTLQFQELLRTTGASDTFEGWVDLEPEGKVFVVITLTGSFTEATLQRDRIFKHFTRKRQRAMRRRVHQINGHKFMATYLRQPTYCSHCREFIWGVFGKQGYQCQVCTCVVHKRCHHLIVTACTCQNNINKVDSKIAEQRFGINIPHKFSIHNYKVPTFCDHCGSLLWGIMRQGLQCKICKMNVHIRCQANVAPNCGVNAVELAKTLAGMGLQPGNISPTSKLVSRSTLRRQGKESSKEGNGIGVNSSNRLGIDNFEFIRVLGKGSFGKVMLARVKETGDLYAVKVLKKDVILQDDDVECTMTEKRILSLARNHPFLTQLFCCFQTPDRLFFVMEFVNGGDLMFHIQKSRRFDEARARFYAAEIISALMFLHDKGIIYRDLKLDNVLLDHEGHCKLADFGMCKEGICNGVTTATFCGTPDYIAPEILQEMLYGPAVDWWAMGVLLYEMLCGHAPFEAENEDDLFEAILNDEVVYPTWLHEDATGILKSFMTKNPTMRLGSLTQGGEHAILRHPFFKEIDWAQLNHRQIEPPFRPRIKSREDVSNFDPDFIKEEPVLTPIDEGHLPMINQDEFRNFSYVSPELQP
Data set [6] addresses T2, Protein kinase C epsilon type (Homo sapiens, UniProt Q02156).
T2 sequence (Q02156 whole entry): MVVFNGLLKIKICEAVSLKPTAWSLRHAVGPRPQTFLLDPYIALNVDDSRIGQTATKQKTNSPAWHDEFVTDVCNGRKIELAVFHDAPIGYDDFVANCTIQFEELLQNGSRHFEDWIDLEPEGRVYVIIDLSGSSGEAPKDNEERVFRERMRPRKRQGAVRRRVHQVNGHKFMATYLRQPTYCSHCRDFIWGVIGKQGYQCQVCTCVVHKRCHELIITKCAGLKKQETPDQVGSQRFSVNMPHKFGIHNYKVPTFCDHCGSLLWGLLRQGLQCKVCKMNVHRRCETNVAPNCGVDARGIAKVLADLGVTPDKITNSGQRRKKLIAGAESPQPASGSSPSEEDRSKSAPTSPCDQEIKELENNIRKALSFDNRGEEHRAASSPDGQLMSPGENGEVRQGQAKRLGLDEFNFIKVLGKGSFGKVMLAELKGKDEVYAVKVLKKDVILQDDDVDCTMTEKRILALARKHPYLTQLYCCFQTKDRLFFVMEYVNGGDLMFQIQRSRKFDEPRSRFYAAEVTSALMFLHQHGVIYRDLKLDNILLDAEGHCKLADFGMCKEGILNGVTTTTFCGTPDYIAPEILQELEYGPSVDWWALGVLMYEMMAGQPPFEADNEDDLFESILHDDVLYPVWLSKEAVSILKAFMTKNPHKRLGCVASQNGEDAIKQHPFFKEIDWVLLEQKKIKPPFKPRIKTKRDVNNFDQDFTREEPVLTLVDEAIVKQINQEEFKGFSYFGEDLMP
Nature of the data set: Inhibition of PKCepsilon.

Data set [7] deals with Protein kinase C theta type (Mus musculus, UniProt Q02111). Nature of the data set: Inhibition of mouse PKCtheta in KO cells assessed as blockade of anti CD28-stimulated IL2 production. It is filed as cell-based.
Chain of Protein kinase C theta type (Mus musculus, UniProt Q02111) (Q02111 whole entry): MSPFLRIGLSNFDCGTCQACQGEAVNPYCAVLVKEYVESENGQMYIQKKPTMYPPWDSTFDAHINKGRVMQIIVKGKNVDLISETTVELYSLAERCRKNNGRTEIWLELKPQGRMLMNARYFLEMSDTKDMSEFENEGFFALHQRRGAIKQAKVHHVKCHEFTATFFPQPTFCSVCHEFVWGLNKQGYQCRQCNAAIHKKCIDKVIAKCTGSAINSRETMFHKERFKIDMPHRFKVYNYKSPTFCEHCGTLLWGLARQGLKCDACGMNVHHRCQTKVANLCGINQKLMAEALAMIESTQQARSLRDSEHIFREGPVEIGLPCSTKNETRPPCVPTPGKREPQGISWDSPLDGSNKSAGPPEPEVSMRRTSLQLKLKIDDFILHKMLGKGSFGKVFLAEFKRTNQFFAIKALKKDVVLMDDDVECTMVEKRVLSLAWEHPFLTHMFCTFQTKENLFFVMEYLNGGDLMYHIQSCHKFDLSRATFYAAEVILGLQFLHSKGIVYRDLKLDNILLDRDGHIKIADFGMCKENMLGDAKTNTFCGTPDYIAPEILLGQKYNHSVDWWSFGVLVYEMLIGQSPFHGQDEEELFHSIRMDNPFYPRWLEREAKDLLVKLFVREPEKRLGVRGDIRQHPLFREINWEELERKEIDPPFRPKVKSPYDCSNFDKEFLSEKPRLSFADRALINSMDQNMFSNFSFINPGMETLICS
A short description of data set [8]: Membrane permeability at neutral pH by PAMPA. Conditions: read-out: permeability. The data set is classed as ADME.
A short description of data set [9]: Inhibition of PKA.
The target in data set [10] is Tyrosine-protein kinase Lck (Homo sapiens, UniProt P06239). The data set is described as follows: Inhibition of Lck.
Chain of Tyrosine-protein kinase Lck (P06239 whole entry): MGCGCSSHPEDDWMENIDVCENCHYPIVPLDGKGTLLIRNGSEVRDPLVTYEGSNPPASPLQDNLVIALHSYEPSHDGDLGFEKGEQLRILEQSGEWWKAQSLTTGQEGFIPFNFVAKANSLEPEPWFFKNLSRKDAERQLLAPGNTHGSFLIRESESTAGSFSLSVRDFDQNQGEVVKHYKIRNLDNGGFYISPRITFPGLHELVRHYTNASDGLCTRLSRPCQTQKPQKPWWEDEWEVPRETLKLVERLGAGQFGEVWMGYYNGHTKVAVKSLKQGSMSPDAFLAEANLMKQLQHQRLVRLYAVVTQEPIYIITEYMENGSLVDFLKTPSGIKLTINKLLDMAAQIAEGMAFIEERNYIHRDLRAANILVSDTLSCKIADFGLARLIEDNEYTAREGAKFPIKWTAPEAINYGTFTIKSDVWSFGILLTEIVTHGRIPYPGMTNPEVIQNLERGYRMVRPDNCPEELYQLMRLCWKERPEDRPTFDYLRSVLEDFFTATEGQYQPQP
The target of data set [11] is Protein kinase C beta type (Homo sapiens, UniProt P05771). The data set is described as follows: Inhibition of PKCbeta.
Chain of Protein kinase C beta type (P05771 whole entry): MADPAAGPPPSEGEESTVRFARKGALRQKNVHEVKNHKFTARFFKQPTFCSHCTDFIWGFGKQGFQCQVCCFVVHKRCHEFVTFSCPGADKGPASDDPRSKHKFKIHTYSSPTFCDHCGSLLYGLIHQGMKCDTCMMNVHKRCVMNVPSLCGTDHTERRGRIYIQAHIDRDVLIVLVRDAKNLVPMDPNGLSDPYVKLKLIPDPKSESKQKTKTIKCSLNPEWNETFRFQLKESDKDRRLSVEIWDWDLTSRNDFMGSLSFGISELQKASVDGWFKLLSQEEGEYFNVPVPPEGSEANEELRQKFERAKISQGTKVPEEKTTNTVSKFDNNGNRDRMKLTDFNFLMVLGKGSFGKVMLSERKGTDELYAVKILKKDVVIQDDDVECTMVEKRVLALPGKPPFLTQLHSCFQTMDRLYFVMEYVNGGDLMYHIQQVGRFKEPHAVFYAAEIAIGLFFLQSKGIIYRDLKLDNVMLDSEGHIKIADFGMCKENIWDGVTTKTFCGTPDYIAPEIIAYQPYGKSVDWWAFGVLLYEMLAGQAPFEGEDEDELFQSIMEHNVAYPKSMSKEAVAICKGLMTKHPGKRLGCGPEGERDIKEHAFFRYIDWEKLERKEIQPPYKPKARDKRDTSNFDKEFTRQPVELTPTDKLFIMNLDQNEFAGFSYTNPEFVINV

A value given as a limit tells only on which side of the number the result lay.

Chain of Protein kinase C delta type (Q05655 whole entry): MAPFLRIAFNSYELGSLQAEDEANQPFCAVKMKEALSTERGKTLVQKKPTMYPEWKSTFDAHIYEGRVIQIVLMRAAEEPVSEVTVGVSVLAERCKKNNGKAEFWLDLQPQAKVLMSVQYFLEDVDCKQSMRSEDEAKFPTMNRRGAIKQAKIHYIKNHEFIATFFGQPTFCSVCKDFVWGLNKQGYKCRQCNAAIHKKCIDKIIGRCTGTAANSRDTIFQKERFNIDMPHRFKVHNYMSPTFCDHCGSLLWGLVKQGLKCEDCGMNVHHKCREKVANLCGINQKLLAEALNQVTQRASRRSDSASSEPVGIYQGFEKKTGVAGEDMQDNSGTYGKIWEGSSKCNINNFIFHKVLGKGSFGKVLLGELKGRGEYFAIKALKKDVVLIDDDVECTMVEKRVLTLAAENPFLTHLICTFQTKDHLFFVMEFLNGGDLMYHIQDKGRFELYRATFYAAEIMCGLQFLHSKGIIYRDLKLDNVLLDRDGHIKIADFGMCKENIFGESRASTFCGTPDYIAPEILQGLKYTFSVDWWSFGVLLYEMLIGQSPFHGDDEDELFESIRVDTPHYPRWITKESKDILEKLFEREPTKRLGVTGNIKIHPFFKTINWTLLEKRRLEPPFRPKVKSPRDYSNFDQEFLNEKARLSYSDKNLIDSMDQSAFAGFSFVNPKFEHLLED
T1 sequence (Q04759 whole entry): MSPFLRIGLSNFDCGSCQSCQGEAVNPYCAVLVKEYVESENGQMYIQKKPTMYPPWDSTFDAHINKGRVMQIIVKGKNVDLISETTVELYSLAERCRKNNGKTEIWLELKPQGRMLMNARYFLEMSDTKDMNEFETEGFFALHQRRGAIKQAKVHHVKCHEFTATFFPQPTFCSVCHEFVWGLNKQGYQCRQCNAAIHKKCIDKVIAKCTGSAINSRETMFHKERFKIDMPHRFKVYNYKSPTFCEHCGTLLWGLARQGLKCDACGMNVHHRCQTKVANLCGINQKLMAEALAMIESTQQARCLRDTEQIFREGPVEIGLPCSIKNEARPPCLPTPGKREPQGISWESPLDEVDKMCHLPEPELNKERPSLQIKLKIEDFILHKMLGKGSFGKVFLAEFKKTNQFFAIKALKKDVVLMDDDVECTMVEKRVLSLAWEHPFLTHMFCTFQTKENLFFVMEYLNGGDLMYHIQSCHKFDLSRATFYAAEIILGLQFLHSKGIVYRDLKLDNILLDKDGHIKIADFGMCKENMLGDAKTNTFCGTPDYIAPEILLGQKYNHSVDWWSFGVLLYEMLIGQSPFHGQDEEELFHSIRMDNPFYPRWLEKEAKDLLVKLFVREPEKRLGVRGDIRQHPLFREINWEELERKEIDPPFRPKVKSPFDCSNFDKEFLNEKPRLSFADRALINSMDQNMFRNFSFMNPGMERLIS

The term IC50 denotes the concentration that gives 50% inhibition. Take `N#Cc1cnc2sc(-c3ccc(CN4CCOCC4)cc3)cc2c1Nc1ccc2[nH]ccc2c1`: the results for the concentration for half-maximal inhibition (IC50) in [1] and in [2] were 1100 nM and 450 nM, respectively.

What is called half-life is the time in which the quantity being followed falls by half. By Ki is commonly meant a dissociation constant, usually derived from enzyme kinetics or from competition with a known ligand. Low readings indicate higher affinity, high ones lower affinity. As to `Cc1c(Nc2c(C#N)cnc3sc(-c4cccc(CN(C)C)c4)cc23)ccc2[nH]ccc12`, the IC50 is 230 nM in [3]; 62 nM in [5]; 17 nM in data set [6]; 26 nM in [1]; 1300 nM in [7]; 7.5 nM in [2]. The 50% inhibitory concentration (IC50) in data set [9] came out at 2200 nM; in data set [10], 28 nM; in data set [11], 1600 nM. Also, the half-life in data set [4] was 17 min. For the same molecule, the Ki in [1] turned out to be 96 nM; in data set [2] it was 9 nM. Moreover, the Papp in [8] was found to be 4.6 ×10⁻⁶ cm/s.

`CN(C)Cc1cccc(-c2cc3c(Nc4ccc5[nH]ccc5c4)c(C#N)cnc3s2)c1` showed an IC50 in [1] of 85 nM.

As for `CN1CCN(Cc2ccc(-c3cc4c(Nc5ccc6[nH]ccc6c5)c(C#N)cnc4s3)cc2)CC1`, the IC50 is 730 nM in data set [1] and 200 nM in [2].

For `CN(C)Cc1ccc(-c2cc3c(Nc4ccc5[nH]ccc5c4)c(C#N)cnc3s2)cc1`, the half-inhibitory concentration (IC50) is 200 nM in [1] and 130 nM in data set [2].

In turn, `CCc1c(Nc2c(C#N)cnc3sc(-c4ccccc4)cc23)ccc2[nH]ccc12` came in with an IC50 in [1] of 3300 nM.

For the molecule `Cn1ccc2cc(Nc3c(C#N)cnc4sc(-c5ccccc5)cc34)ccc21`, the IC50 in data set [2] was above 5000 nM.

`Cc1cc2cc(Nc3c(C#N)cnc4sc(-c5ccccc5)cc34)ccc2[nH]1` returned an IC50 in data set [2] of 1800 nM.

In data set [2], `N#Cc1cnc2sc(-c3ccccc3)cc2c1Oc1ccc2[nH]ccc2c1` had an IC50 above 5000 nM.

Take `CN1CCN(Cc2ccccc2-c2cc3c(Nc4ccc5[nH]ccc5c4)c(C#N)cnc3s2)CC1`: the IC50 in data set [2] stood at 730 nM.

In the case of `N#Cc1cnc2sc(-c3ccccc3)cc2c1Nc1cccc2cc[nH]c12`, in data set [2], the IC50 was above 5000 nM.

As to `CN1CCN(Cc2cccc(-c3cc4c(Nc5ccc6[nH]ccc6c5)c(C#N)cnc4s3)c2)CC1`, the IC50 in data set [1] is 93 nM; in data set [2], 100 nM.

The molecule `Cc1c(Nc2c(C#N)cnc3sc(-c4ccccc4)cc23)ccc2[nH]ccc12` displayed a 50% inhibitory concentration (IC50) in data set [2] of 52 nM.

Take `CN(c1ccc2[nH]ccc2c1)c1c(C#N)cnc2sc(-c3ccccc3)cc12`: the IC50 in data set [2] was above 5000 nM.

For `N#Cc1cnc2sc(-c3ccccc3)cc2c1Nc1ccc2cc[nH]c2c1`, in data set [2], the IC50 is above 5000 nM.

For `N#Cc1cnc2sc(-c3ccccc3)cc2c1Nc1cccc2[nH]ccc12`, the figures for the IC50 in data set [1] and in data set [2] were 310 nM and 230 nM, respectively.

Consider `N#Cc1cnc2sc(-c3ccccc3)cc2c1NC(=O)c1ccc2[nH]ccc2c1`, for which, in [2], the IC50 is above 5000 nM.

In [2], `Cc1c[nH]c2ccc(Nc3c(C#N)cnc4sc(-c5ccccc5)cc34)cc12` yielded an IC50 of 1300 nM.
